# Experimental data taken from ChEMBL document CHEMBL4011581, “Interference with bile salt export pump function is a susceptibility factor for human liver injury in drug development” (Toxicol Sci, 2010).
# Target: T1, Bile salt export pump (Homo sapiens, UniProt O95342)
# Test: Inhibition of human BSEP expressed in fall armyworm sf9 cell membrane vesicles assessed as reduction in ATP-dependent [3H]-taurocholic acid uptake at 100 uM preincubated for 30 mins prior to [3H]-taurocholic acid addition by liquid scintillation counting relative to control
# Assay type: ADME
row,Compound,Imax
1,CC(C)C(=O)Nc1ccc([N+](=O)[O-])c(C(F)(F)F)c1 [FLUTAMIDE],40 to 50%

# Target: T1, Bile salt export pump
# Test: (§1) Inhibition of human BSEP expressed in fall armyworm sf9 cell membrane vesicles assessed as reduction in vesicle-associated [3H]-taurocholate at 133 uM preincubated for 10 mins prior to ATP addition measured after 15 mins in presence of [3H]-taurocholate by topcount based membrane vesicle transport assay relative to control
# Assay type: ADME
row,Compound,Imax
1,CC(C)C(=O)Nc1ccc([N+](=O)[O-])c(C(F)(F)F)c1 [FLUTAMIDE],50%

# Target: T1, Bile salt export pump
# Test: Inhibition of BSEP in human hepatocytes assessed as reduction in biliary excretion of [3H]-taurocholate in cell lysates after 15 mins by liquid scintillation counting
# Assay type: ADME, cell-based, Lysate
row,Compound,IC50
1,CC(C)C(=O)Nc1ccc([N+](=O)[O-])c(C(F)(F)F)c1 [FLUTAMIDE],75 µM

# Target: T1, Bile salt export pump
# Test: Inhibition of BSEP in human hepatocytes assessed as reduction in biliary excretion of [3H]-taurocholate in cell lysates at 10 to 100 uM after 15 mins by liquid scintillation counting relative to control
# Assay type: ADME, cell-based, Lysate
row,Compound,Imax
1,CC(C)C(=O)Nc1ccc([N+](=O)[O-])c(C(F)(F)F)c1 [FLUTAMIDE],20%

# Target: T1, Bile salt export pump
# Test: as §1, with “cell plasma” for “cell”, “transport” for “at 133 uM”, “assay” for “assay relative to control”
# Assay type: ADME
row,Compound,IC50
1,CC(C)(C)NCC(O)c1cc(O)cc(O)c1 (stereo not given) [TERBUTALINE],> 135 µM
2,CN1CC[C@]23c4c5ccc(O)c4O[C@H]2[C@@H](O)C=C[C@H]3[C@H]1C5 [MORPHINE],> 135 µM
3,Cc1nccn1CC1CCc2c(c3ccccc3n2C)C1=O (stereo not given) [ONDANSETRON],> 135 µM
4,NC[C@@H]1O[C@H](O[C@H]2[C@@H](O)[C@H](O[C@@H]3[C@@H](O)[C@H](N)C[C@H](N)[C@H]3O[C@H]3O[C@H](CN)[C@@H](O)[C@H](O)[C@H]3N)O[C@@H]2CO)[C@H](N)[C@@H](O)[C@@H]1O [FRAMYCETIN],> 135 µM
5,CN(C)C(=O)CCSC(SCCC(=O)O)c1cccc(/C=C/c2ccc3ccc(Cl)cc3n2)c1 (stereo not given) [MK-571],3.5 µM
6,NNC(=O)c1ccncc1 [ISONIAZID],> 135 µM
7,CC(=O)CCCCn1c(=O)c2c(ncn2C)n(C)c1=O [PENTOXIFYLLINE],> 135 µM
8,c1ccc2c(c1)OCC(C1=NCCN1)O2 (stereo not given) [IDAZOXAN],> 135 µM
9,CN(Cc1cnc2nc(N)nc(N)c2n1)c1ccc(C(=O)N[C@@H](CCC(=O)O)C(=O)O)cc1 [METHOTREXATE],> 135 µM
10,CN(CCOc1ccc(CC2SC(=O)NC2=O)cc1)c1ccccn1 (stereo not given) [ROSIGLITAZONE],4.4 µM
11,Cc1onc(-c2c(Cl)cccc2Cl)c1C(=O)N[C@@H]1C(=O)N2[C@@H]1SC(C)(C)[C@@H]2C(=O)O [DICLOXACILLIN],45 to 60 µM
12,CNCCC=C1c2ccccc2CCc2ccccc21 [NORTRIPTYLINE],> 135 µM
13,CCCc1nc2c(C)cc(-c3nc4ccccc4n3C)cc2n1Cc1ccc(-c2ccccc2C(=O)O)cc1,16.2 µM
14,CCCNC(=O)NS(=O)(=O)c1ccc(Cl)cc1 [CHLORPROPAMIDE],> 135 µM
15,CC(=O)[C@H]1[C@H](C#N)C[C@H]2[C@@H]3CC=C4CC(O)CC[C@]4(C)[C@H]3CC[C@@]21C (stereo not given in full),> 135 µM
16,CC(C)(C)NC[C@H](O)COc1nsnc1N1CCOCC1 [TIMOLOL],> 135 µM
17,Nc1nc2c(ncn2COCCO)c(=O)[nH]1 [ACYCLOVIR],> 135 µM
18,O=P1(N(CCCl)CCCl)NCCCO1 (stereo not given) [CYCLOPHOSPHAMIDE ANHYDROUS],> 135 µM
19,CC(C)(C)NCC(O)COc1cccc2c1CC(O)C(O)C2 (stereo not given) [NADOLOL],> 135 µM
20,CC1(COc2ccc(CC3SC(=O)NC3=O)cc2)CCCCC1 (stereo not given) [CIGLITAZONE],37.8 µM
21,CN1C(=O)CN=C(c2ccccc2)c2cc(Cl)ccc21 [DIAZEPAM],> 135 µM
22,COc1cc(NC(C)CCCN)c2ncccc2c1 (stereo not given) [PRIMAQUINE],32.7 µM
23,C=CCN1CC[C@]23c4c5ccc(O)c4O[C@H]2C(=O)CC[C@@]3(O)[C@H]1C5 [NALOXONE],> 135 µM
24,CN1CCC[C@H]1c1cccnc1 [NICOTINE],> 135 µM
25,CCCCNc1cc(C(=O)O)cc(S(N)(=O)=O)c1Oc1ccccc1 [BUMETANIDE],> 135 µM

row,Compound,IC50
1,C[C@@H]1C[C@H]2[C@@H]3CCC4=CC(=O)C=C[C@]4(C)[C@@]3(F)[C@@H](O)C[C@]2(C)[C@@]1(O)C(=O)CO [DEXAMETHASONE],> 135 µM
2,CCC1(c2ccccc2)C(=O)NC(=O)NC1=O [PHENOBARBITAL],> 135 µM
3,CC[C@H]1OC(=O)[C@H](C)C(=O)[C@H](C)[C@@H](O[C@@H]2O[C@H](C)C[C@H](N(C)C)[C@H]2O)[C@](C)(OC)C[C@@H](C)C(=O)[C@H](C)[C@H]2N(CCCCn3cnc(-c4cccnc4)c3)C(=O)O[C@]12C [TELITHROMYCIN],4 µM
4,Cc1cccc(Nc2cc(Cl)nc(SCC(=O)O)n2)c1C [PIRINIXIC ACID],75 to 105 µM
5,CCOc1ccc(/C=C2\NCCc3cc(OCC)c(OCC)cc32)cc1OCC [DROTAVERINE],37 µM
6,CC(CN1c2ccccc2Sc2ccccc21)N(C)C (stereo not given) [PROMETHAZINE],> 135 µM
7,O=c1c(O)c(-c2ccc(O)c(O)c2)oc2cc(O)cc(O)c12 [QUERCETIN],> 135 µM
8,ClC(Cl)(Cl)Cl [CARBON TETRACHLORIDE],> 135 µM
9,[H]/N=C(/N)N/C(=N/[H])NCCc1ccccc1 [PHENFORMIN],> 135 µM
10,NCC[C@H](O)C(=O)N[C@@H]1C[C@H](N)[C@@H](O[C@H]2O[C@H](CN)[C@@H](O)[C@H](O)[C@H]2O)[C@H](O)[C@H]1O[C@H]1O[C@H](CO)[C@@H](O)[C@H](N)[C@H]1O [AMIKACIN],> 135 µM
11,CC(C)C(=O)Nc1ccc([N+](=O)[O-])c(C(F)(F)F)c1 [FLUTAMIDE],> 135 µM
12,Cc1cccc(C)c1OCC(=O)N[C@@H](Cc1ccccc1)[C@@H](O)C[C@H](Cc1ccccc1)NC(=O)[C@H](C(C)C)N1CCCNC1=O [LOPINAVIR],17.3 µM
13,Cc1noc(NS(=O)(=O)c2ccc(N)cc2)c1C [SULFISOXAZOLE],> 135 µM
14,Nc1nc(N)c2nc(-c3ccccc3)c(N)nc2n1,> 135 µM
15,Cc1cc(NS(=O)(=O)c2ccc(N)cc2)no1 [SULFAMETHOXAZOLE],> 135 µM
16,CC(C)/N=c1\cc2n(-c3ccc(Cl)cc3)c3ccccc3nc-2cc1Nc1ccc(Cl)cc1 [CLOFAZIMINE],12.9 µM
17,Cc1ncc2n1-c1ccc(Cl)cc1C(c1ccccc1F)=NC2 [MIDAZOLAM],41.7 µM
18,NS(=O)(=O)Cc1noc2ccccc12 [ZONISAMIDE],> 135 µM
19,Cn1c(=O)c2[nH]cnc2n(C)c1=O [THEOPHYLLINE],> 135 µM
20,COc1cc2nc(N3CCN(C(=O)c4ccco4)CC3)nc(N)c2cc1OC [PRAZOSIN],> 135 µM
21,Cc1ccc(-c2ncc(Cl)cc2-c2ccc(S(C)(=O)=O)cc2)cn1 [ETORICOXIB],45 to 60 µM
22,CCC1=C(C)CN(C(=O)NCCc2ccc(S(=O)(=O)NC(=O)N[C@H]3CC[C@H](C)CC3)cc2)C1=O [GLIMEPIRIDE],15.7 µM
23,CC(C)N(CCC(C(N)=O)(c1ccccc1)c1ccccn1)C(C)C (stereo not given) [DISOPYRAMIDE],> 135 µM
24,CN1C(C(=O)Nc2ccccn2)=C(O)c2sccc2S1(=O)=O [TENOXICAM],> 135 µM
25,N=C(N)NC(=O)Cc1c(Cl)cccc1Cl [GUANFACINE],> 135 µM

row,Compound,IC50
1,C[C@H]1C[C@H]2[C@@H]3CCC4=CC(=O)C=C[C@]4(C)[C@@]3(F)[C@@H](O)C[C@]2(C)[C@@]1(O)C(=O)CO [BETAMETHASONE],> 135 µM
2,CC[C@]1(O)C[C@@H]2CN(CCc3c([nH]c4ccccc34)[C@@](C(=O)OC)(c3cc4c(cc3OC)N(C)[C@H]3[C@@](O)(C(=O)OC)[C@H](OC(C)=O)[C@]5(CC)C=CCN6CC[C@]43[C@@H]65)C2)C1 [VINBLASTINE],> 135 µM
3,CC(C)[C@@H]1NC(=O)[C@H](C)OC(=O)[C@@H](C(C)C)NC(=O)[C@@H](C(C)C)OC(=O)[C@H](C(C)C)NC(=O)[C@H](C)OC(=O)[C@@H](C(C)C)NC(=O)[C@@H](C(C)C)OC(=O)[C@H](C(C)C)NC(=O)[C@H](C)OC(=O)[C@@H](C(C)C)NC(=O)[C@@H](C(C)C)OC1=O [VALINOMYCIN],1.6 µM
4,CCCCCC[C@H]1C(=O)O[C@H](C)[C@H](NC(=O)c2cccc(NC=O)c2O)C(=O)O[C@@H](C)[C@@H]1OC(=O)CC(C)C [ANTIMYCIN A],45 to 60 µM
5,COc1cccc2c1C(=O)c1c(O)c3c(c(O)c1C2=O)C[C@@](O)(C(=O)CO)C[C@@H]3O[C@H]1C[C@H](N)[C@H](O)[C@H](C)O1 [DOXORUBICIN],> 135 µM
6,COc1cc(Cc2cnc(N)nc2N)cc(OC)c1OC [TRIMETHOPRIM],> 135 µM
7,CNC1(c2ccccc2Cl)CCCCC1=O (stereo not given) [KETAMINE],> 135 µM
8,C=CC1=C(C(=O)O)N2C(=O)[C@@H](NC(=O)/C(=N\OCC(=O)O)c3csc(N)n3)[C@H]2SC1 [CEFIXIME],> 135 µM
9,CN(C)CCCN1c2ccccc2Sc2ccc(Cl)cc21 [CHLORPROMAZINE],> 135 µM
10,CS(=O)(=O)OCCCCOS(C)(=O)=O [BUSULFAN],> 135 µM
11,CNC(=O)c1cc(Oc2ccc(NC(=O)Nc3ccc(Cl)c(C(F)(F)F)c3)cc2)ccn1 [SORAFENIB],8 µM
12,COC(=O)C1=C(C)NC(C)=C(C(=O)OCCN(C)Cc2ccccc2)C1c1cccc([N+](=O)[O-])c1 (stereo not given) [NICARDIPINE],7.9 µM
13,Oc1ccc2c(c1)[C@@]13CCCC[C@@]1(O)[C@@H](C2)N(CC1CCC1)CC3 [BUTORPHANOL],> 135 µM
14,CCc1nn(CCCN2CCN(c3cccc(Cl)c3)CC2)c(=O)n1CCOc1ccccc1 [NEFAZODONE],6.1 µM
15,CCn1cc(C(=O)O)c(=O)c2cc(F)c(N3CCN(C)CC3)cc21 [PEFLOXACIN],> 135 µM
16,CN1CCOC(c2ccccc2)c2ccccc2C1 (stereo not given) [NEFOPAM],> 135 µM
17,C=C[C@H]1C[N@@]2CC[C@H]1C[C@H]2[C@H](O)c1ccnc2ccc(OC)cc12 [QUININE],> 135 µM
18,S=P(N1CC1)(N1CC1)N1CC1 [THIOTEPA],> 135 µM
19,Cc1c(OCC(F)(F)F)ccnc1C[S+]([O-])c1nc2ccccc2[nH]1 (stereo not given) [LANSOPRAZOLE],> 135 µM
20,COC[C@H]1OC(=O)c2coc3c2[C@@]1(C)C1=C(C3=O)[C@@H]2CCC(=O)[C@@]2(C)C[C@H]1OC(C)=O [WORTMANNIN],13.6 µM
21,C=C[C@H]1C[N@@]2CC[C@H]1C[C@@H]2[C@@H](O)c1ccnc2ccc(OC)cc12 [QUINIDINE],> 135 µM
22,COc1ccc2cc([C@H](C)C(=O)O)ccc2c1 [NAPROXEN],> 135 µM
23,CCCCNC(=O)NS(=O)(=O)c1ccc(C)cc1 [TOLBUTAMIDE],> 135 µM
24,CN1CCc2cccc3c2[C@H]1Cc1ccc(O)c(O)c1-3 [APOMORPHINE],> 135 µM
25,Cc1c(O)cccc1C(=O)N[C@@H](CSc1ccccc1)[C@H](O)CN1C[C@H]2CCCC[C@H]2C[C@H]1C(=O)NC(C)(C)C,11.8 µM

# Target: T1, Bile salt export pump
# Test: Inhibition of human BSEP expressed in fall armyworm sf9 cell membrane vesicles assessed as reduction in ATP-dependent [3H]-taurocholic acid uptake preincubated for 30 mins prior to [3H]-taurocholic acid addition by liquid scintillation counting
# Assay type: ADME
row,Compound,IC50
1,CC(C)C(=O)Nc1ccc([N+](=O)[O-])c(C(F)(F)F)c1 [FLUTAMIDE],50 µM
